Reference: patent US9670209B2 (ACADIA Pharmaceuticals Inc., priority 2013, dated 2017)
Marks after values point to notes of the source that are not given here.

Experiments:
[1] = molecular target: human M3 muscarinic acetylcholine receptor (Homo sapiens (Human), UniProt P20309); assay: R-SAT (Receptor Selection and Amplification) assay, M3; assay type: cell-based; details: for M3 PEC50 AVG: NIH-3T3 cells; for Emax: read-out: M3 EFF % AVG
Description: (§1) Briefly, NIH-3T3 cells were grown in 96-well tissue culture plates to 70% to 80% confluence. Cells were transfected with plasmid DNAs using Superfect Reagent (QIAGEN, Valencia, Calif.) as per the manufacturer's protocols. […] Cells were then grown in a humidified atmosphere with 5% ambient CO2 for 4 to 6 days. Media were then removed from the plates, and beta-galactosidase activity was measured by the addition of o-nitrophenyl-D-galactopyranoside (in phosphate-buffered saline with 5% NP-40 detergent). […] All data represent the mean of three wells and were analyzed using the computer program Excel Fit, and EC50 determinations were made using least-squares fit analysis with GraphPad Software Inc. (San Diego, Calif.) software.

[2] = molecular target: human M1 muscarinic acetylcholine receptor (Homo sapiens (Human), UniProt P11229); assay: R-SAT (Receptor Selection and Amplification) assay, M1; assay type: cell-based; details: for M1 PEC50 AVG: NIH-3T3 cells; for Emax: read-out: M1 EFF % AVG
Sequence of human M1 muscarinic acetylcholine receptor (P11229 whole entry): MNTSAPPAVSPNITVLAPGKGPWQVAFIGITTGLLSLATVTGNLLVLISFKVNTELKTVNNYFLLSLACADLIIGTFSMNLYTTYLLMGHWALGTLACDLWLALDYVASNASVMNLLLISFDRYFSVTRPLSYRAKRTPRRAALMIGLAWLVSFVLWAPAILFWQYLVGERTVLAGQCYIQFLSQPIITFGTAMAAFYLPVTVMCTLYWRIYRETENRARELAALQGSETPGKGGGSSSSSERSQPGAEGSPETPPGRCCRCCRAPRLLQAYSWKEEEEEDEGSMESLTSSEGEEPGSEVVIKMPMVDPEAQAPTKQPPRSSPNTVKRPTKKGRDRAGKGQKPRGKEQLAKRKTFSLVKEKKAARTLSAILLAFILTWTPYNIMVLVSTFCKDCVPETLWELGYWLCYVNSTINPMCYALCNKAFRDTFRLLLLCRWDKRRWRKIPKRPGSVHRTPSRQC
Description: as §1

M1 muscarinic receptor = M1 muscarinic receptor (Homo sapiens (Human), UniProt P11229); assay: M1 GTPγS binding assay; assay type: biochemical; details: for Emax: read-out: M1 GTPγS EFF % AVG;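 on Emax: efficacy relative to carbachol as 100%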
Sequence of M1 muscarinic receptor (P11229 whole entry): as above

tear secretion = assay: Tear secretion (phenol red thread) in mice; assay type: in vivo, balb/c mice; details: for Effects on tear secretion compared to Comparative Compound 2: other studies using the same method (Table 2), statistically significant compared to vehicle
Description: The tear distance, in mm, is recorded. The mice were not anesthetized or otherwise sedated. […] Data are analyzed by repeated measures ANOVA with post-hoc Bonferroni comparisons to vehicle. […] Further details can be seen in FIG. 2.

[3] = molecular target: human M2 muscarinic acetylcholine receptor (Homo sapiens (Human), UniProt P08172); assay: R-SAT (Receptor Selection and Amplification) assay, M2; assay type: cell-based; details: for M2 PEC50 AVG: NIH-3T3 cells; for Emax: read-out: M2 EFF % AVG
Sequence of human M2 muscarinic acetylcholine receptor (P08172 whole entry): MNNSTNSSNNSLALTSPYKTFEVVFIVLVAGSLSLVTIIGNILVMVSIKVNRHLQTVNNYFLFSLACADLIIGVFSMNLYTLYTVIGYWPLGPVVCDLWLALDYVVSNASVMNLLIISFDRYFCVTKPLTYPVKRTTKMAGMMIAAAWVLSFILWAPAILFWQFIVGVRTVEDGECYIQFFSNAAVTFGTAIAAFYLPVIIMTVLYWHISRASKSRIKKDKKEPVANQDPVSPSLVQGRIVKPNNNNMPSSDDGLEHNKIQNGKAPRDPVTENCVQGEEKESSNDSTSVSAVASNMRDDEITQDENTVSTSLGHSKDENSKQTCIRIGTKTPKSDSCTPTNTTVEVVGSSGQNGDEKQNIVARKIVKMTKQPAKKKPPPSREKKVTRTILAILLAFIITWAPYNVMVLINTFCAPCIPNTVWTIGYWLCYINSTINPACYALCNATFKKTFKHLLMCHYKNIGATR
Description: as §1

[4] = Ocular pharmacokinetic evaluation in rabbits; assay type: in vivo, New Zealand White rabbits
Description: The experimental animals were normotensive male New Zealand White rabbits. A single drop (35 μl) of a compound, (302s), at a concentration of 0.126% (corrected for oxalate salt weight) was administered to each eye by pipette. At 0.25, 0.5, 1, 2, 4, 8, and 24 hours, plasma, aqueous humor, vitreous humor, cornea, iris-ciliary body, retina, and choroid were collected (2 rabbits/timepoint, or 4 eyes/timepoint). Approximately 0.5 ml of blood was collected and placed in EDTA tubes. Blood samples were kept on ice during the duration of sample collection, and centrifuged to harvest plasma. Animals were euthanized and ocular tissues were collected and placed in vials and kept on dry ice for the duration of the collections. All ocular tissue and plasma samples were stored at or below −60° C. until bioanalysis. […] The plasma concentration at most timepoints was >100-fold lower than the compound concentration in target ocular tissues (iris/ciliary body, cornea, retina). The concentration of compound 302s in the target ocular tissues remained at active levels up to at least 24 h. Abbreviations used in FIG. 3 have the following meanings AH (Aqueous Humor), VH (Vitreous Humor) ICB (Iris Ciliary Body), CenP Retina (Center Punch Retina), Per Retina (Peripheral Retina) CenP Choroid (Center Punch Choroid), and Per Choroid (Peripheral Choroid)

[5] = R-SAT, percent efficacy vs carbachol = 100 percent
[6] = percent efficacy vs carbachol = 100 percent
[7] = first study of Table 2, 1 hr post-dosing, 5 μl drop of 0.1% to each eye
[8] = second study of Table 2, 1 hr post-dosing, 5 μl drop of 0.1% to each eye
[9] = second study of Table 2, 3 hr post-dosing, 5 μl drop of 0.1% to each eye
[10] = third study (pilocarpine 24-hour study), 3 hr post-dosing, 0.1% 5 μl drop, Pilocarpine 0.2% 20 μl drop
[11] = third study (pilocarpine 24-hour study), 6 hr post-dosing, 0.1% 5 μl drop, Pilocarpine 0.2% 20 μl drop
[12] = third study (pilocarpine 24-hour study), 24 hr post-dosing, 0.1% 5 μl drop, Pilocarpine 0.2% 20 μl drop

Sequence of human M3 muscarinic acetylcholine receptor (P20309 whole entry): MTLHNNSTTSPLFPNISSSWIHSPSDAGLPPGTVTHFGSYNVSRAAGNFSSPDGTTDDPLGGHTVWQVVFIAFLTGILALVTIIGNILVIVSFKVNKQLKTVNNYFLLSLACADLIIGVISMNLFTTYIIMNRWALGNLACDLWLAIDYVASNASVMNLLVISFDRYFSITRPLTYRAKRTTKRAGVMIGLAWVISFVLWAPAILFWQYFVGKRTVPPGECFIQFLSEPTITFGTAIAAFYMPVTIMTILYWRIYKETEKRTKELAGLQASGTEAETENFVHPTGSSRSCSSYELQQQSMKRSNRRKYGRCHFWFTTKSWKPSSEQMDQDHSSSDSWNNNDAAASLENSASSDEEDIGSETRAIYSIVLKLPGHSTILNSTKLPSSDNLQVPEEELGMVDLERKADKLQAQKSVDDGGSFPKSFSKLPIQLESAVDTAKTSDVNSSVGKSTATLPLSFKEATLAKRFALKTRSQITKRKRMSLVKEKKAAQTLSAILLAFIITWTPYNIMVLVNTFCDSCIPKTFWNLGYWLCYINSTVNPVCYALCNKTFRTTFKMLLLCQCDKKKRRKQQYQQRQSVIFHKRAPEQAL

SMILES	M3 PEC50 AVG ([1]; R-SAT)	M1 PEC50 AVG [2]	M1 GTPγS PEC50 AVG (M1 muscarinic receptor; GTPγS binding)	Tear secretion (tear secretion; [7]) [% *]	Tear secretion (tear secretion; [8])	Tear secretion (tear secretion; [9])	Tear secretion (tear secretion; [10])	Tear secretion (tear secretion; [11])	Tear secretion (tear secretion; [12])	M2 PEC50 AVG ([3]; R-SAT)	Emax [1] [%]	Emax [2, 6] [%]	EC50 (M1 muscarinic receptor) [nM]	Emax (M1 muscarinic receptor) [%]	Effects on tear secretion compared to Comparative Compound 2 (tear secretion)	Emax [3] [%]	further results
CC(C)(C)OC(=O)N1C2CC[C@H]1C[C@@H](O)C2 [Comparative compound 2, reference compound]	7.1	9.0	7.9	149	113%	123%	134%	110%	98%	7.1	–	–	–	–	–	–	M3 EFF % AVG [1, 5]: 30%; M1 EFF % AVG [2, 6]: 126%; M1 GTPγS EFF % AVG (M1 muscarinic receptor; GTPγS binding, percent efficacy vs carbachol = 100 percent): 32%; Effect on tear secretion compared to vehicle (tear secretion; pilocarpine 24-hour study): not significantly different from vehicle; M2 EFF % AVG [3, 5]: 52%
COCC[C@H]1C[C@H]2CC[C@@H](C1)N2C[C@@H](C)Cn1ncc2ccccc21 [Compound 303S, 1-((R)-3-((1R,3R,5S)-3-(2-Methoxyethyl)-8-azabicyclo[3.2.1]octan-8-yl)-2-methylpropyl)-1H-indazole]	–	8.4	–	–	131%	134% *	–	–	–	7.1	8	121	63.1	67	greater than that of Comparative Compound 2	102	–
C=CCO[C@H]1C[C@H]2CC[C@@H](C1)N2C[C@@H](C)Cn1ncc2ccccc21 [Compound 305, 1-((R)-3-((1R,3R,5S)-3-(Allyloxy)-8-azabicyclo[3.2.1]octan-8-yl)-2-methylpropyl)-1H-indazole]	–	8.1	–	163	–	–	–	–	–	6.9	4	115	79.4	70	greater than that of Comparative Compound 2	107	–
C[C@H](CN1[C@@H]2CC[C@H]1C[C@@H](OCC1CC1)C2)Cn1ncc2ccccc21 [Compound 302S, 1-((R)-3-((1R,3R,5S)-3-(cyclopropylmethoxy)-8-azabicyclo[3.2.1]octan-8-yl)-2-methylpropyl)-1H-indazole]	6.8	8.9	8.5	156	157% *	155% *	152% *	151% *	120% †	7.6	12	111	–	98	–	153	Kp ([4]; male, New Zealand White, rabbit, retina (against plasma), topical, 35 μl of 0.126% per eye, most timepoints, iris/ciliary body, cornea, retina, read-out: Plasma concentration lower than concentration in target ocular tissues): > 100; Tmax ([4]; male, New Zealand White, rabbit, topical, 35 μl of 0.126% per eye, all tissues, single 35 μl drop of 0.126% to each eye): 15 min; Cmax ([4]; male, New Zealand White, rabbit, topical, 35 μl of 0.126% per eye, plasma, single 35 μl drop of 0.126% to each eye, read-out: Maximal plasma concentration (Cmax)): 6.4 ng/g; Time the concentration in the target ocular tissues remained at active levels ([4]; target ocular tissues, single topical drop): at least 24 h; Tear secretion compared to vehicle (tear secretion; pilocarpine 24-hour study, 3 and 6 hours post-dosing): statistically significant improved tear secretion; Tear secretion compared to vehicle (tear secretion; pilocarpine 24-hour study, 24 hours post-dosing): trend toward significance; Enhancement of tear secretion compared to pilocarpine (tear secretion; pilocarpine 24-hour study, all time points): exceeded the effect of pilocarpine at all time points
